Patent US8642788B2, “Activators of executioner procaspases 3, 6 and 7” (The Regents of the University of California, priority 2008, dated 2014)
Where two headings read alike, the source gives them in different places.

Tests used:
Format in all cases: biochemical
[1] = target: T1, procaspase-3 (Homo sapiens, UniProt P42574); assay: Executioner procaspase-3 activation assay (Ac-DEVD-AFC fluorogenic substrate)
T1 construct: His6 (C); made in house; host or cells: E. coli BL21(DE3)RP, pET-23b
T1 sequence (P42574 1-277): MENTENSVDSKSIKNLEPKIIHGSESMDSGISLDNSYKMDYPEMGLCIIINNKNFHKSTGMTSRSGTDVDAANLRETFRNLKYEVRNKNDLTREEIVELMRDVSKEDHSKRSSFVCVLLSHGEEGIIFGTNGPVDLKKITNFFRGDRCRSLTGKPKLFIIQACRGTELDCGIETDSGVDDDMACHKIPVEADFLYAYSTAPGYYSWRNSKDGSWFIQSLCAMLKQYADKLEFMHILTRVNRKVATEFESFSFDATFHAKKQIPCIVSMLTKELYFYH
Method in brief: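 Procaspase-3 at 100 nM was incubated with activating compounds (100 nM to 100 uM) in 50 mM HEPES pH 7.4, 50 mM KCl, 1 mM DTT and 0.01% Triton-X100, the detergent limiting aggregation artefacts. Protein, substrate and inhibitor were kept as frozen aliquots and thawed just before use.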

[2] = target: T2, procaspase-6 (Homo sapiens, UniProt P55212); assay: Executioner procaspase-6 activation assay (Ac-VEID-AFC fluorogenic substrate); conditions: incubation with compound for 5 h at 37° C.; 100 nM procaspase
T2 sequence (P55212 1-293): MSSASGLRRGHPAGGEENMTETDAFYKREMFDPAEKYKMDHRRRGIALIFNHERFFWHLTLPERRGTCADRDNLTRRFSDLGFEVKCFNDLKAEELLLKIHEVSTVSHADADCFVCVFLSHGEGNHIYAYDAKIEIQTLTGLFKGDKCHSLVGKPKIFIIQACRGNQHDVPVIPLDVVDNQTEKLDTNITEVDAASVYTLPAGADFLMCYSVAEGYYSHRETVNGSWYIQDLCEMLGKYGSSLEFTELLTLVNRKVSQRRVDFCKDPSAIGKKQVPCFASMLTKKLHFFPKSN
Method in brief: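 Procaspase at 100 nM incubated with compound (100 nM–100 μM) in 50 mM HEPES pH 7.4, KCl, DTT, 0.01% Triton X-100, 3% DMSO, 37 °C for 5 h; then 25 μM Ac-DEVD-AFC (procaspase-7) or Ac-VEID-AFC (procaspase-6), kinetic fluorescence 30 min (ex 365/em 495); EC50 reported.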

[3] = target: T3, procaspase-7 (Homo sapiens, UniProt P55210); assay: Executioner procaspase-7 activation assay (Ac-DEVD-AFC fluorogenic substrate); conditions: incubation with compound for 5 h at 37° C.; 100 nM procaspase
T3 construct: His6 (C); made in house; host or cells: E. coli BL21(DE3)RP, pET-21b
T3 sequence (P55210 1-303): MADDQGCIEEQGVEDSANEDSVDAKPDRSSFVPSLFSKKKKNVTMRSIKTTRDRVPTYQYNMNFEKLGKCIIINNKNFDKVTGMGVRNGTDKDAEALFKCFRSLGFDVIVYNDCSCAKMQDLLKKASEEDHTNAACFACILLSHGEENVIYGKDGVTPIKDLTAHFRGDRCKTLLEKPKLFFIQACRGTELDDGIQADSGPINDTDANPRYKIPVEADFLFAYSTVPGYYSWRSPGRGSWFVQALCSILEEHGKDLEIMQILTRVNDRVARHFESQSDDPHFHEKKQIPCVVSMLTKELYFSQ
Procedure: The executioner procaspase-3, -6 and -7 activation assay protocol involves incubating the target protein at the physiologically-relevant concentration of 100 nM with activating compounds (ranging from 100 nM to 100 uM) in a total volume of 50 μL consisting of a reaction buffer of 50 mM HEPES, pH 7.4, 50 mM KCl, 1 mM DTT and 0.01% Triton-X100 (to reduce false positive hits due to compound aggregation). The procaspase/small molecule incubations are then agitated at 37° C. and assayed at various time points by addition of the fluorogenic peptide substrate 7-Amino-4-trifluoromethylcoumarin-DEVD (Ac-DEVD-AFC) (procaspases-3, -7) or Ac-VEID-AFC (procaspase-6) to a final concentration of 25 μM and analyzed by a kinetic 30 minute assay (excitation 365 nm and emission 495 nm). The final concentration of DMSO in each well is 3% and has no effect on enzyme stability or activity. […] All components of the assay including protein, substrate and inhibitor are stored as frozen aliquots and thawed immediately prior to the assay.
Tables 1 and 2. Procaspase activation as a result of incubation with compound for 5 h at 37° C. (+++ EC50˜0.5-10 μM; ++ EC50˜10-50 μM; + EC50˜50-200 μM; -no activation observed; ND not determined).

[4] = incubation with compound for 5 h at 37° C., 100 nM procaspase, read-out: Procaspase Activation 3

EC50 [1, 4] [µM]	EC50 [2] [µM]	EC50 [3] [µM]	SMILES	EC50 [1] [µM]
> 100	> 100	> 100	O=C(Nc1cccc(-c2cnc3ccccc3c2)c1)c1cc2cccc(O)c2oc1=O [compound 83, 8-Hydroxy-2-oxo-2H-chromene-3-carboxylic acid [3-Quinolin-3-yl-phenyl]-amide]	–
> 100	> 100	> 100	COc1cccc2cc(C(=O)Nc3cccc(-c4cnc5ccccc5c4)c3)c(=O)oc12 [compound 84, 8-Methoxy-2-oxo-2H-chromene-3-carboxylic acid [3-Quinolin-3-yl-phenyl]-amide]	–
> 100	> 100	> 100	O=C(Nc1cccc(-c2cnc3ccccc3c2)c1)c1cc2cccc(OC(F)(F)F)c2oc1=O [compound 85, 8-Trifluoromethoxy-2-oxo-2H-chromene-3-carboxylic acid [3-Quinolin-3-yl-phenyl]-amide]	–
> 100	> 100	> 100	O=C(Nc1cccc(-c2ccc3c(c2)OCCO3)c1)c1cc2cccc(O)c2oc1=O [compound 86, 8-Hydroxy-2-oxo-2H-chromene-3-carboxylic acid [3-(2,3-dihydro-benzo[1,4]dioxin-6-yl)-phenyl]-amide]	–
> 100	> 100	> 100	COc1cccc2cc(C(=O)Nc3cccc(-c4ccc5c(c4)OCCO5)c3)c(=O)oc12 [compound 87, 8-Methoxy-2-oxo-2H-chromene-3-carboxylic acid [3-(2,3-dihydro-benzo[1,4]dioxin-6-yl)-phenyl]-amide]	–
> 100	> 100	> 100	O=C(Nc1cccc(-c2ccc3c(c2)OCCO3)c1)c1cc2cccc(OC(F)(F)F)c2oc1=O [compound 88, 8-Trifluoromethoxy-2-oxo-2H-chromene-3-carboxylic acid [3-(2,3-dihydro-benzo[1,4]dioxin-6-yl)-phenyl]-amide]	–
> 100	> 100	> 100	N#Cc1ccccc1-c1cccc(NC(=O)c2cc3cccc(O)c3oc2=O)c1 [compound 89, 8-Hydroxy-2-oxo-2H-chromene-3-carboxylic acid (2′-cyano-biphenyl-3-yl)-amide]	–
> 100	> 100	> 100	COc1cccc2cc(C(=O)Nc3cccc(-c4ccccc4C#N)c3)c(=O)oc12 [compound 90, 8-Methoxy-2-oxo-2H-chromene-3-carboxylic acid (2′-cyano-biphenyl-3-yl)-amide]	–
> 100	> 100	> 100	N#Cc1ccccc1-c1cccc(NC(=O)c2cc3cccc(OC(F)(F)F)c3oc2=O)c1 [compound 91, 8-Trifluoromethoxy-2-oxo-2H-chromene-3-carboxylic acid (2′-cyano-biphenyl-3-yl)-amide]	–
> 100	> 100	> 100	CC(=O)Nc1ccccc1-c1cccc(NC(=O)c2cc3cccc(O)c3oc2=O)c1 [compound 95, 8-Hydroxy-2-oxo-2H-chromene-3-carboxylic acid (2′-acetylamino-biphenyl-3-yl)-amide]	–
> 100	> 100	> 100	COc1cccc2cc(C(=O)Nc3cccc(-c4ccccc4NC(C)=O)c3)c(=O)oc12 [compound 96, 8-Methoxy-2-oxo-2H-chromene-3-carboxylic acid (2′-acetylamino-biphenyl-3-yl)-amide]	–
> 100	> 100	> 100	CC(=O)Nc1ccccc1-c1cccc(NC(=O)c2cc3cccc(OC(F)(F)F)c3oc2=O)c1 [compound 97, 8-Trifluoromethoxy-2-oxo-2H-chromene-3-carboxylic acid (2′-acetylamino-biphenyl-3-yl)-amide]	–
10 to 50	> 100	10 to 50	O=C(Nc1cccc(-c2ccccc2S(=O)(=O)N2CCOCC2)c1)c1cc2cccc(O)c2oc1=O [compound 98, 8-Hydroxy-2-oxo-2H-chromene-3-carboxylic acid (2′-(Morpholine-4-sulfonyl)-biphenyl-3-yl)-amide]	–
> 100	> 100	> 100	COc1cccc2cc(C(=O)Nc3cccc(-c4ccccc4S(=O)(=O)N4CCOCC4)c3)c(=O)oc12 [compound 99, 8-Methoxy-2-oxo-2H-chromene-3-carboxylic acid (2′-(Morpholine-4-sulfonyl)-biphenyl-3-yl)-amide]	–
> 100	> 100	> 100	O=C(Nc1cccc(-c2ccccc2S(=O)(=O)N2CCOCC2)c1)c1cc2cccc(OC(F)(F)F)c2oc1=O [compound 100, 8-Trifluoromethoxy-2-oxo-2H-chromene-3-carboxylic acid (2′-(Morpholine-4-sulfonyl)-biphenyl-3-yl)-amide]	–
> 100	> 100	> 100	COc1ncc(-c2cccc(NC(=O)c3cc4cccc(O)c4oc3=O)c2)c(OC)n1 [compound 127, 8-Hydroxy-2-oxo-2H-chromene-3-carboxylic acid [3-(2,4-dimethoxy-pyrimidin-5-yl)-phenyl]-amide]	–
> 100	> 100	> 100	COc1ncc(-c2cccc(NC(=O)c3cc4cccc(OC)c4oc3=O)c2)c(OC)n1 [compound 128, 8-Methoxy-2-oxo-2H-chromene-3-carboxylic acid [3-(2,4-dimethoxy-pyrimidin-5-yl)-phenyl]-amide]	–
> 100	> 100	> 100	COc1ccc(-c2cccc(NC(=O)c3cc4cccc(O)c4oc3=O)c2)cn1 [compound 129, 8-Hydroxy-2-oxo-2H-chromene-3-carboxylic acid [3-(6-methoxy-pyridin-3-yl)-phenyl]-amide]	–
> 100	> 100	> 100	COc1ccc(-c2cccc(NC(=O)c3cc4cccc(OC)c4oc3=O)c2)cn1 [compound 130, 8-Methoxy-2-oxo-2H-chromene-3-carboxylic acid [3-(6-methoxy-pyridin-3-yl)-phenyl]-amide]	–
> 100	> 100	> 100	COc1cncc(-c2cccc(NC(=O)c3cc4cccc(O)c4oc3=O)c2)c1 [compound 131, 8-Hydroxy-2-oxo-2H-chromene-3-carboxylic acid [3-(5-methoxy-pyridin-3-yl)-phenyl]-amide]	–

SMILES	EC50 [1, 4] [µM]	EC50 [2] [µM]	EC50 [3] [µM]	EC50 [1] [µM]
O=C(Nc1cccc(-c2ccc3[nH]ccc3c2)c1)c1cc2cccc(O)c2oc1=O [compound 92, 8-Hydroxy-2-oxo-2H-chromene-3-carboxylic acid (3-(1H-Indol-5-yl)-phenyl)-amide]	–	> 100	> 100	> 100
COc1cccc2cc(C(=O)Nc3cccc(-c4ccc5[nH]ccc5c4)c3)c(=O)oc12 [compound 93, 8-Methoxy-2-oxo-2H-chromene-3-carboxylic acid (3-(1H-Indol-5-yl)-phenyl)-amide]	–	> 100	> 100	> 100
O=C(Nc1cccc(-c2ccc3[nH]ccc3c2)c1)c1cc2cccc(OC(F)(F)F)c2oc1=O [compound 94, 8-Trifluoromethoxy-2-oxo-2H-chromene-3-carboxylic acid (3-(1H-Indol-5-yl)-phenyl)-amide]	–	> 100	> 100	> 100
